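Results reflect a 48-hour exposure of cells in 96-well plates to compound at five concentrations. Abbreviation: GI50, concentration required for 50% inhibition of growth.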 The source made the active and inactive calls. No stated cut-off is given here; in the data, active = GI50 up to about 1.1 µM and inactive = higher.
Tests used:
Assay in all cases: DTP human tumour cell line panel, 48 h
ACHN = test system: ACHN
BT-549 = test system: BT-549
CCRF-CEM = test system: CCRF-CEM
COLO 205 = test system: COLO 205
DU-145 = test system: DU-145
EKVX = test system: EKVX
HCT-116 = test system: HCT-116
HCT-15 = test system: HCT-15
Hs-578T = test system: Hs-578T
KM12 = test system: KM12
LOX IMVI = test system: LOX IMVI
MOLT-4 = test system: MOLT-4
NCI/ADR-RES = test system: NCI/ADR-RES
OVCAR-4 = test system: OVCAR-4
SNB-19 = test system: SNB-19
SR = test system: SR
TK-10 = test system: TK-10
UACC-257 = test system: UACC-257
UACC-62 = test system: UACC-62

SMILES | GI50 (ACHN) | GI50 (BT-549) | GI50 (CCRF-CEM) | GI50 (COLO 205) | GI50 (DU-145) | GI50 (EKVX) | GI50 (HCT-116) | GI50 (HCT-15) [µM] | GI50 (Hs-578T) | GI50 (KM12) | GI50 (LOX IMVI) | GI50 (MOLT-4) | GI50 (NCI/ADR-RES) | GI50 (OVCAR-4) | GI50 (SNB-19) | GI50 (SR) | GI50 (TK-10) | GI50 (UACC-257) | GI50 (UACC-62)
CO[C@@H]1C=C[C@@]23c4cc5c(cc4C(O)N(CC2O)C3C1)OCO5 (stereo not given in full) | 3.33 µM (inactive) | 2.98 µM (inactive) | 1.79 µM (inactive) | 2.94 µM (inactive) | 3.81 µM (inactive) | 3.86 µM (inactive) | 2.97 µM (inactive) | 3.8 | 22.6 µM (inactive) | 2.62 µM (inactive) | 3.52 µM (inactive) | 2.82 µM (inactive) | 13.9 µM (inactive) | 2.8 µM (inactive) | 3.3 µM (inactive) | 4 µM (inactive) | 4.19 µM (inactive) | 1.86 µM (inactive) | 3.13 µM (inactive)
O=Cc1ccc(-c2nccc3c2[nH]c2ccccc23)o1 | > 100 µM (inactive) | > 100 µM (inactive) | > 100 µM (inactive) | > 100 µM (inactive) | > 100 µM (inactive) | > 100 µM (inactive) | 55.7 µM (inactive) | > 100 | 19.4 µM (inactive) | > 100 µM (inactive) | > 56.2 µM (inactive) | > 94.8 µM (inactive) | > 100 µM (inactive) | 89.5 µM (inactive) | > 100 µM (inactive) | > 100 µM (inactive) | 7.36 µM (inactive) | 24.5 µM (inactive) | 26.9 µM (inactive)
Brc1ccc2c(-c3nc(-c4c[nH]c5ccc(Br)cc45)cs3)c[nH]c2c1 | 1.67 µM (inactive) | 13.3 µM (inactive) | 4.68 µM (inactive) | 2.54 µM (inactive) | 5.77 µM (inactive) | 1.24 µM (inactive) | 3.67 µM (inactive) | 3.39 | 7.21 µM (inactive) | 2.62 µM (inactive) | 2.32 µM (inactive) | 2.46 µM (inactive) | 4.56 µM (inactive) | 9.33 µM (inactive) | 4.25 µM (inactive) | 3.15 µM (inactive) | 5.51 µM (inactive) | 8.75 µM (inactive) | 2.87 µM (inactive)
COC(=O)[C@H]1ON2O[C@H](OC3CCCC[C@@H]3c3ccccc3)C[C@@H]3CC[C@H]1[C@@]32C (stereo not given in full) | > 100 µM (inactive) | > 100 µM (inactive) | > 100 µM (inactive) | 91.4 µM (inactive) | > 100 µM (inactive) | 92.9 µM (inactive) | 79.1 µM (inactive) | 89.9 | > 100 µM (inactive) | 95.9 µM (inactive) | > 100 µM (inactive) | 54.3 µM (inactive) | > 100 µM (inactive) | > 100 µM (inactive) | > 100 µM (inactive) | 72.9 µM (inactive) | > 100 µM (inactive) | > 100 µM (inactive) | > 100 µM (inactive)
O=C(O)c1ccc(/C=N/N=C2c3ccccc3-c3ccccc32)cc1 | 48.3 µM (inactive) | > 100 µM (inactive) | 44.1 µM (inactive) | 57.8 µM (inactive) | > 100 µM (inactive) | > 100 µM (inactive) | > 100 µM (inactive) | 57.1 | 13.7 µM (inactive) | 35.2 µM (inactive) | > 100 µM (inactive) | 38.6 µM (inactive) | > 100 µM (inactive) | 35.8 µM (inactive) | 48 µM (inactive) | 30.4 µM (inactive) | 66.1 µM (inactive) | 67.5 µM (inactive) | 61.8 µM (inactive)
NNC(=O)CCCCCCCC(=O)O | > 100 µM (inactive) | > 100 µM (inactive) | > 100 µM (inactive) | > 100 µM (inactive) | > 100 µM (inactive) | > 100 µM (inactive) | > 100 µM (inactive) | > 100 | > 100 µM (inactive) | > 100 µM (inactive) | > 100 µM (inactive) | > 100 µM (inactive) | > 100 µM (inactive) | > 100 µM (inactive) | > 100 µM (inactive) | > 100 µM (inactive) | > 100 µM (inactive) | > 100 µM (inactive) | > 100 µM (inactive)
C=C(C)[C@@H]1CC[C@]2(C(=O)O)CC[C@]3(C)[C@H](CC[C@@H]4[C@@]5(C)CC[C@H](O)C(C)(C)[C@@H]5CC[C@]43C)[C@@H]12 [BETULINIC ACID] | 8.28 µM (inactive) | 2.53 µM (inactive) | 5.15 µM (inactive) | 4.63 µM (inactive) | 9.71 µM (inactive) | 16.1 µM (inactive) | 4.27 µM (inactive) | 8.67 | 10.8 µM (inactive) | 5.93 µM (inactive) | 11.3 µM (inactive) | 4.51 µM (inactive) | 7.23 µM (inactive) | 5.83 µM (inactive) | 13.7 µM (inactive) | 5.53 µM (inactive) | 14.8 µM (inactive) | 6.03 µM (inactive) | 14.1 µM (inactive)
O=C(O)C#Cc1ccc([N+](=O)[O-])cc1 | > 100 µM (inactive) | > 100 µM (inactive) | > 100 µM (inactive) | > 100 µM (inactive) | > 100 µM (inactive) | > 100 µM (inactive) | > 100 µM (inactive) | > 100 | > 100 µM (inactive) | > 100 µM (inactive) | > 100 µM (inactive) | > 100 µM (inactive) | > 100 µM (inactive) | > 100 µM (inactive) | > 100 µM (inactive) | > 100 µM (inactive) | > 100 µM (inactive) | > 100 µM (inactive) | > 100 µM (inactive)
Cc1[nH]c(-c2ccccc2)c2nc(N(C)C)oc(=O)c12 | > 100 µM (inactive) | > 100 µM (inactive) | > 100 µM (inactive) | > 100 µM (inactive) | > 100 µM (inactive) | > 100 µM (inactive) | > 100 µM (inactive) | > 100 | > 100 µM (inactive) | > 100 µM (inactive) | > 100 µM (inactive) | > 100 µM (inactive) | > 100 µM (inactive) | > 100 µM (inactive) | > 100 µM (inactive) | > 100 µM (inactive) | > 100 µM (inactive) | > 100 µM (inactive) | > 100 µM (inactive)
N=C(N)N/N=C/c1c(-c2ccc(N)cc2)nc2sccn12 | 26.9 µM (inactive) | 35.5 µM (inactive) | 26.8 µM (inactive) | 23.4 µM (inactive) | 17.5 µM (inactive) | 24.7 µM (inactive) | 23.3 µM (inactive) | 36.9 | 31.3 µM (inactive) | 21.2 µM (inactive) | 32.9 µM (inactive) | 25.4 µM (inactive) | > 100 µM (inactive) | 35.3 µM (inactive) | 23.2 µM (inactive) | 33.7 µM (inactive) | 20.9 µM (inactive) | > 100 µM (inactive) | > 100 µM (inactive)
COc1cccc(C2c3cc4c(cc3OC(N3CCCC3)C2C)OCO4)c1O (stereo not given) | 6.59 µM (inactive) | 3.79 µM (inactive) | 4.69 µM (inactive) | 3.37 µM (inactive) | 4.41 µM (inactive) | 9.68 µM (inactive) | 4.61 µM (inactive) | 3.72 | 3.04 µM (inactive) | 3.03 µM (inactive) | 5.56 µM (inactive) | 6.7 µM (inactive) | 3.7 µM (inactive) | 9.35 µM (inactive) | 7.6 µM (inactive) | 4.38 µM (inactive) | 3.99 µM (inactive) | 4.41 µM (inactive) | 4.33 µM (inactive)
Clc1cc(OCc2nn3c(Cc4ccccc4)nnc3s2)c(Cl)cc1OCc1nn2c(Cc3ccccc3)nnc2s1 | 59 µM (inactive) | 20.8 µM (inactive) | 12.3 µM (inactive) | > 100 µM (inactive) | 47.1 µM (inactive) | 54.1 µM (inactive) | 77.1 µM (inactive) | 7.05 | 42.4 µM (inactive) | > 100 µM (inactive) | > 100 µM (inactive) | 3.77 µM (inactive) | 16 µM (inactive) | 50 µM (inactive) | 27.9 µM (inactive) | 0.541 µM (active) | 29.9 µM (inactive) | > 100 µM (inactive) | > 100 µM (inactive)
CN(C)CCn1c(=O)c2ccc(NCCNCCO)c3c(=O)c4ccccc4n(c1=O)c23 | 0.0116 µM (active) | 1.21 µM (inactive) | < 0.01 µM (active) | 0.0703 µM (active) | 0.0217 µM (active) | 0.231 µM (active) | 0.0492 µM (active) | 0.279 | 0.23 µM (active) | 0.249 µM (active) | 0.0341 µM (active) | < 0.01 µM (active) | 1.72 µM (inactive) | 0.514 µM (active) | 0.182 µM (active) | < 0.01 µM (active) | 0.764 µM (active) | 0.368 µM (active) | 0.0467 µM (active)
COC(=O)c1ccc(NCc2cc(O)c3ccccc3c2O)cc1 | 10.8 µM (inactive) | 16.6 µM (inactive) | 2.86 µM (inactive) | 5.06 µM (inactive) | 15.8 µM (inactive) | 18.3 µM (inactive) | 15.7 µM (inactive) | 8.49 | 37.7 µM (inactive) | 14.8 µM (inactive) | 3.48 µM (inactive) | 2.81 µM (inactive) | 27.1 µM (inactive) | 12.4 µM (inactive) | 22.2 µM (inactive) | 4.54 µM (inactive) | 24.4 µM (inactive) | 7.87 µM (inactive) | 3.67 µM (inactive)
CCOC(=O)CCC(NC(=O)c1ccc(Oc2nc3c(N)cc(C(F)(F)F)cc3nc2-c2ccccc2)cc1)C(=O)OCC (stereo not given) | 8.24 µM (inactive) | > 50.6 µM (inactive) | > 100 µM (inactive) | > 100 µM (inactive) | 17.3 µM (inactive) | 47.1 µM (inactive) | 2.14 µM (inactive) | > 100 | 11.7 µM (inactive) | 19.5 µM (inactive) | > 27.1 µM (inactive) | > 100 µM (inactive) | 1.34 µM (inactive) | 19.2 µM (inactive) | 30.5 µM (inactive) | 9.95 µM (inactive) | 14.6 µM (inactive) | > 27.9 µM (inactive) | > 46.3 µM (inactive)
